In patent US12655116B2, “Substituted isophthalic acid diamides” (Bayer Aktiengesellschaft, priority 2020, dated 2026):

Columns and labels:
PHBPU [1] = test: Post-emergence herbicidal action against PHBPU; assay type: in vivo, Pharbitis purpurea; settings: dosage 20 g/ha; for pest or weed control at 20 g/ha: Ipomoea purpurea, 504 h
In short: (§1)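 Greenhouse plants in sandy loam were sprayed at the one-leaf stage, 2 to 3 weeks after sowing, with WP or EC formulations as aqueous suspension or emulsion (600 to 800 l/ha water, 0.2% wetting agent). Visual damage was scored about 3 weeks later versus untreated controls, 0% = like control, 100% = dead.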

ABUTH [2] = test: Post-emergence herbicidal action against ABUTH; assay type: in vivo, Abutilon theophrasti; settings: visual assessment about 3 weeks after treatment vs untreated controls; for pest or weed control at 5 g/ha / pest or weed control at 20 g/ha: Abutilon theophrasti, 504 h
In short: as §1

AVEFA = test: Pre-emergence herbicidal action against AVEFA; assay type: in vivo, Avena fatua; settings: 80 g/ha, pre-emergence; for pest or weed control at 80 g/ha: Avena fatua, 504 h
In short: (§2)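 Pre-emergence soil-surface spray of formulated compound (WP or EC; 600 to 800 l/ha; 0.2% wetting agent) over seeds sown in sandy loam. After 3 weeks under greenhouse conditions, damage is estimated visually in percent against untreated plants.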

POLCO = test: Pre-emergence herbicidal action against POLCO; assay type: in vivo, Polygonum convolvulus
In short: as §2

MATIN [3] = test: Post-emergence herbicidal action against MATIN; assay type: in vivo, Matricaria inodora
In short: as §1

VERPE [4] = test: Post-emergence herbicidal action against VERPE; assay type: in vivo, Veronica persica
In short: as §1

VIOTR [5] = test: Pre-emergence herbicidal action against VIOTR; assay type: in vivo, Viola tricolor; settings: for pest or weed control at 20 g/ha / pest or weed control at 80 g/ha: Viola tricolor, 504 h
In short: as §2

SETVI [6] = test: Post-emergence herbicidal action against SETVI; assay type: in vivo, Setaria viridis
In short: as §1

ABUTH [7] = test: Pre-emergence herbicidal action against ABUTH; assay type: in vivo, Abutilon theophrasti
In short: as §2

MATIN [8] = test: Pre-emergence herbicidal action against MATIN; assay type: in vivo, Matricaria inodora; settings: for pest or weed control at 20 g/ha / pest or weed control at 80 g/ha: Tripleurospermum inodorum, 504 h
In short: as §2

AMARE [9] = test: Post-emergence herbicidal action against AMARE; assay type: in vivo, Amaranthus retroflexus; settings: Amaranthus retroflexus, 504 h, 20 g/ha, visual assessment about 3 weeks after treatment, 100% = plants have died, 0% = like control plants
In short: as §1

VERPE [10] = test: Pre-emergence herbicidal action against VERPE; assay type: in vivo, Veronica persica; settings: for pest or weed control at 80 g/ha: Veronica persica, 504 h
In short: as §2

DIGSA [11] = test: Post-emergence herbicidal action against DIGSA; assay type: in vivo, Digitaria sanguinalis; settings: Digitaria sanguinalis, 504 h
In short: as §1

ECHCG [12] = test: Pre-emergence herbicidal action against ECHCG; assay type: in vivo, Echinochloa crus-galli
In short: as §2

AMARE [13] = test: Pre-emergence herbicidal action against AMARE; assay type: in vivo, Amaranthus retroflexus; settings: for pest or weed control at 20 g/ha / pest or weed control at 80 g/ha: Amaranthus retroflexus, 504 h
In short: as §2

PHBPU [14] = test: Pre-emergence herbicidal action against PHBPU; assay type: in vivo, Pharbitis purpurea
In short: as §2

DIGSA [15] = test: Pre-emergence herbicidal action against DIGSA; assay type: in vivo, Digitaria sanguinalis
In short: as §2

VIOTR [16] = test: Post-emergence herbicidal action against VIOTR; assay type: in vivo, Viola tricolor; settings: for pest or weed control at 5 g/ha / pest or weed control at 20 g/ha: Viola tricolor, 504 h
In short: as §1

ALOMY = test: Pre-emergence herbicidal action against ALOMY; assay type: in vivo, Alopecurus myosuroides; settings: 80 g/ha, pre-emergence, scored visually after 3 weeks vs untreated controls (100% = plants have died, 0% = like control plants); for pest or weed control at 80 g/ha: Alopecurus myosuroides, 504 h
In short: as §2

SETVI [17] = test: Pre-emergence herbicidal action against SETVI; assay type: in vivo, Setaria viridis
In short: as §2

ECHCG [18] = test: Post-emergence herbicidal action against ECHCG; assay type: in vivo, Echinochloa crus-galli; settings: for pest or weed control at 5 g/ha / pest or weed control at 20 g/ha: Echinochloa crus-galli, 504 h
In short: as §1

[19] = Fallopia convolvulus, 504 h, dosage 80 g/ha
[20] = Tripleurospermum inodorum, 504 h, dosage 20 g/ha
[21] = Veronica persica, 504 h, 20 g/ha
[22] = Setaria viridis, 504 h, dosage 20 g/ha
[23] = Abutilon theophrasti, 504 h, 80 g/ha, scored visually after 3 weeks vs untreated controls (100% = plants have died, 0% = like control plants)
[24] = Echinochloa crus-galli, 504 h, 80 g/ha
[25] = 20 g/ha, scored visually after 3 weeks vs untreated controls, 100% = plants have died, 0% = like control plants
[26] = 80 g/ha, scored visually after 3 weeks vs untreated controls, 100% = plants have died, 0% = like control plants
[27] = Ipomoea purpurea, 504 h, dosage 80 g/ha
[28] = Digitaria sanguinalis, 504 h, dosage 80 g/ha
[29] = Setaria viridis, 504 h, dosage 80 g/ha
[30] = 80 g/ha, scored visually after 3 weeks vs untreated controls (100% = plants have died, 0% = like control plants)

CNC(=O)c1c(C(F)(F)F)ccc(C(=O)Nc2nnnn2C)c1OC [Example 1-56]
pest or weed control at 20 g/ha (PHBPU [1]): 80%
pest or weed control at 5 g/ha (ABUTH [2]; dosage 5 g/ha): 80%
pest or weed control at 20 g/ha (ABUTH [2]; dosage 20 g/ha): 100%
pest or weed control at 80 g/ha (AVEFA): 80%
pest or weed control at 80 g/ha (POLCO; [19]): 90%
pest or weed control at 20 g/ha (MATIN [3]; [20]): 90%
pest or weed control at 20 g/ha (VERPE [4]; [21]): 90%
pest or weed control at 20 g/ha (VIOTR [5]; dosage 20 g/ha): 100%
pest or weed control at 80 g/ha (VIOTR [5]; dosage 80 g/ha): 100%
pest or weed control at 5 g/ha (SETVI [6]; Setaria viridis, 504 h, dosage 5 g/ha): 100%
pest or weed control at 20 g/ha (SETVI [6]; [22]): 100%
pest or weed control at 80 g/ha (ABUTH [7]; [23]): 90%
pest or weed control at 20 g/ha (MATIN [8]; dosage 20 g/ha): 90%
pest or weed control at 80 g/ha (MATIN [8]; dosage 80 g/ha): 90%
pest or weed control at 20 g/ha (AMARE [9]): 100%
pest or weed control at 80 g/ha (VERPE [10]; dosage 80 g/ha): 90%
pest or weed control at 5 g/ha (DIGSA [11]): 90%
pest or weed control at 20 g/ha (DIGSA [11]): 100%
pest or weed control at 80 g/ha (ECHCG [12]; [24]): 90%
pest or weed control at 20 g/ha (AMARE [13]; [25]): 100%
pest or weed control at 80 g/ha (AMARE [13]; [26]): 100%
pest or weed control at 20 g/ha (PHBPU [14]; Ipomoea purpurea, 504 h, dosage 20 g/ha): 80%
pest or weed control at 80 g/ha (PHBPU [14]; [27]): 80%
pest or weed control at 80 g/ha (DIGSA [15]; [28]): 80%
pest or weed control at 5 g/ha (VIOTR [16]): 100%
pest or weed control at 20 g/ha (VIOTR [16]; 20 g/ha): 100%
pest or weed control at 80 g/ha (ALOMY): 90%
pest or weed control at 20 g/ha (SETVI [17]; [22]): 90%
pest or weed control at 80 g/ha (SETVI [17]; [29]): 100%
pest or weed control at 5 g/ha (ECHCG [18]; dosage 5 g/ha): 80%
pest or weed control at 20 g/ha (ECHCG [18]; dosage 20 g/ha): 90%

CCNC(=O)c1c(C(F)F)ccc(C(=O)Nc2nnnn2C)c1CC [Example 1-278]
pest or weed control at 20 g/ha (PHBPU [1]): 90%
pest or weed control at 5 g/ha (ABUTH [2]; dosage 5 g/ha): 80%
pest or weed control at 20 g/ha (ABUTH [2]; dosage 20 g/ha): 90%
pest or weed control at 80 g/ha (AVEFA): 90%
pest or weed control at 20 g/ha (POLCO; Fallopia convolvulus, 504 h, dosage 20 g/ha): 90%
pest or weed control at 80 g/ha (POLCO; [19]): 100%
pest or weed control at 5 g/ha (MATIN [3]; Tripleurospermum inodorum, 504 h, dosage 5 g/ha): 80%
pest or weed control at 20 g/ha (MATIN [3]; [20]): 90%
pest or weed control at 5 g/ha (VERPE [4]; Veronica persica, 504 h, 5 g/ha): 80%
pest or weed control at 20 g/ha (VERPE [4]; [21]): 90%
pest or weed control at 20 g/ha (VIOTR [5]; dosage 20 g/ha): 100%
pest or weed control at 80 g/ha (VIOTR [5]; dosage 80 g/ha): 100%
pest or weed control at 20 g/ha (SETVI [6]; [22]): 90%
pest or weed control at 80 g/ha (ABUTH [7]; [23]): 100%
pest or weed control at 20 g/ha (ABUTH [7]; Abutilon theophrasti, 504 h, dosage 20 g/ha, scored visually after 3 weeks vs untreated controls, 100% = plants have died, 0% = like control plants, read-out: Pre-emergence action against ABUTH (herbicidal activity in percent)): 90%
pest or weed control at 20 g/ha (MATIN [8]; dosage 20 g/ha): 100%
pest or weed control at 80 g/ha (MATIN [8]; dosage 80 g/ha): 100%
pest or weed control at 20 g/ha (AMARE [9]): 90%
pest or weed control at 80 g/ha (VERPE [10]; dosage 80 g/ha): 100%
pest or weed control at 5 g/ha (DIGSA [11]): 90%
pest or weed control at 20 g/ha (DIGSA [11]): 90%
pest or weed control at 20 g/ha (ECHCG [12]; Echinochloa crus-galli, 504 h, 20 g/ha): 90%
pest or weed control at 80 g/ha (ECHCG [12]; [24]): 100%
pest or weed control at 20 g/ha (AMARE [13]; [25]): 100%
pest or weed control at 80 g/ha (AMARE [13]; [26]): 100%
pest or weed control at 80 g/ha (PHBPU [14]; [27]): 90%
pest or weed control at 20 g/ha (DIGSA [15]; Digitaria sanguinalis, 504 h, dosage 20 g/ha): 100%
pest or weed control at 80 g/ha (DIGSA [15]; [28]): 100%
pest or weed control at 5 g/ha (VIOTR [16]): 90%
pest or weed control at 20 g/ha (VIOTR [16]; 20 g/ha): 90%
pest or weed control at 80 g/ha (ALOMY): 90%
pest or weed control at 80 g/ha (SETVI [17]; [29]): 100%
pest or weed control at 5 g/ha (ECHCG [18]; dosage 5 g/ha): 90%
pest or weed control at 20 g/ha (ECHCG [18]; dosage 20 g/ha): 90%

CCNC(=O)c1c(C(F)F)ccc(C(=O)Nc2nnnn2CC)c1OC [Example 2-73]
Post-emergence action against PHBPU in % (PHBPU [1]): 80%
Post-emergence action against ABUTH in % (ABUTH [2]; dosage 5 g/ha): 80%
Post-emergence action against ABUTH in % (ABUTH [2]; dosage 20 g/ha): 80%
Pre-emergence action against AVEFA in % (AVEFA): 80%
Pre-emergence action against POLCO in % (POLCO; dosage 80 g/ha): 80%
Post-emergence action against MATIN in % (MATIN [3]; dosage 5 g/ha): 80%
Post-emergence action against MATIN in % (MATIN [3]; dosage 20 g/ha): 80%
Post-emergence action against VERPE in % (VERPE [4]; 5 g/ha): 80%
Post-emergence action against VERPE in % (VERPE [4]; 20 g/ha): 90%
Pre-emergence action against VIOTR in % (VIOTR [5]; dosage 20 g/ha): 90%
Pre-emergence action against VIOTR in % (VIOTR [5]; dosage 80 g/ha): 100%
Post-emergence action against SETVI in % (SETVI [6]; dosage 20 g/ha): 100%
Pre-emergence action against ABUTH (herbicidal activity) (ABUTH [7]; [30]): 100%
Pre-emergence action against ABUTH (herbicidal activity in percent) (ABUTH [7]; dosage 20 g/ha, scored visually after 3 weeks vs untreated controls, 100% = plants have died, 0% = like control plants): 100%
Pre-emergence action against MATIN in % (MATIN [8]; dosage 20 g/ha): 100%
Pre-emergence action against MATIN in % (MATIN [8]; dosage 80 g/ha): 100%
Pre-emergence action against VERPE in % (VERPE [10]; dosage 20 g/ha): 90%
Pre-emergence action against VERPE in % (VERPE [10]; dosage 80 g/ha): 90%
Pre-emergence action against ECHCG in % (ECHCG [12]; 80 g/ha): 100%
Pre-emergence action against AMARE in % (AMARE [13]; [25]): 100%
Pre-emergence action against AMARE in % (AMARE [13]; [30]): 100%
Pre-emergence action against PHBPU in % (PHBPU [14]; dosage 80 g/ha): 80%
Pre-emergence action against DIGSA in % (DIGSA [15]; dosage 20 g/ha): 90%
Pre-emergence action against DIGSA in % (DIGSA [15]; dosage 80 g/ha): 100%
Post-emergence action against VIOTR in % (VIOTR [16]; 20 g/ha): 100%
Pre-emergence action against ALOMY (herbicidal activity) (ALOMY): 100%
Pre-emergence action against SETVI in % (SETVI [17]; dosage 80 g/ha): 100%
Post-emergence action against ECHCG in % (ECHCG [18]; dosage 5 g/ha): 80%
Post-emergence action against ECHCG in % (ECHCG [18]; dosage 20 g/ha): 80%
